Legend:
[1] = molecular target: Angiotensin-converting enzyme 2 (Homo sapiens, UniProt Q9BYF1); assay: Enzyme Inhibition Assay; conditions: pH 6.5; 22 °C
Procedure: (§1) Enzyme assay was conducted in 384-well microplates format. Activity was monitored by measuring increase in fluorescence (excitation @320 nm, emission @405 nm) over a 60 minute time course using a BMG Polarstar Galaxy fluorescent plate reader. Compound IC50 values were determined using 10-pt concentration ranges. Rates of substrate hydrolysis were determined from time courses and converted to percent inhibition. Percent inhibition was plotted versus compound concentration and fit to the four parameter logistic equation by non-linear regression using Prism Graphpad software.

[2] = molecular target: T1, Angiotensin-converting enzyme (Sus scrofa, UniProt A1YQ85); assay: Enzyme Inhibition Assay; conditions: pH 7.5; 22 °C
T1 sequence (A1YQ85 whole entry): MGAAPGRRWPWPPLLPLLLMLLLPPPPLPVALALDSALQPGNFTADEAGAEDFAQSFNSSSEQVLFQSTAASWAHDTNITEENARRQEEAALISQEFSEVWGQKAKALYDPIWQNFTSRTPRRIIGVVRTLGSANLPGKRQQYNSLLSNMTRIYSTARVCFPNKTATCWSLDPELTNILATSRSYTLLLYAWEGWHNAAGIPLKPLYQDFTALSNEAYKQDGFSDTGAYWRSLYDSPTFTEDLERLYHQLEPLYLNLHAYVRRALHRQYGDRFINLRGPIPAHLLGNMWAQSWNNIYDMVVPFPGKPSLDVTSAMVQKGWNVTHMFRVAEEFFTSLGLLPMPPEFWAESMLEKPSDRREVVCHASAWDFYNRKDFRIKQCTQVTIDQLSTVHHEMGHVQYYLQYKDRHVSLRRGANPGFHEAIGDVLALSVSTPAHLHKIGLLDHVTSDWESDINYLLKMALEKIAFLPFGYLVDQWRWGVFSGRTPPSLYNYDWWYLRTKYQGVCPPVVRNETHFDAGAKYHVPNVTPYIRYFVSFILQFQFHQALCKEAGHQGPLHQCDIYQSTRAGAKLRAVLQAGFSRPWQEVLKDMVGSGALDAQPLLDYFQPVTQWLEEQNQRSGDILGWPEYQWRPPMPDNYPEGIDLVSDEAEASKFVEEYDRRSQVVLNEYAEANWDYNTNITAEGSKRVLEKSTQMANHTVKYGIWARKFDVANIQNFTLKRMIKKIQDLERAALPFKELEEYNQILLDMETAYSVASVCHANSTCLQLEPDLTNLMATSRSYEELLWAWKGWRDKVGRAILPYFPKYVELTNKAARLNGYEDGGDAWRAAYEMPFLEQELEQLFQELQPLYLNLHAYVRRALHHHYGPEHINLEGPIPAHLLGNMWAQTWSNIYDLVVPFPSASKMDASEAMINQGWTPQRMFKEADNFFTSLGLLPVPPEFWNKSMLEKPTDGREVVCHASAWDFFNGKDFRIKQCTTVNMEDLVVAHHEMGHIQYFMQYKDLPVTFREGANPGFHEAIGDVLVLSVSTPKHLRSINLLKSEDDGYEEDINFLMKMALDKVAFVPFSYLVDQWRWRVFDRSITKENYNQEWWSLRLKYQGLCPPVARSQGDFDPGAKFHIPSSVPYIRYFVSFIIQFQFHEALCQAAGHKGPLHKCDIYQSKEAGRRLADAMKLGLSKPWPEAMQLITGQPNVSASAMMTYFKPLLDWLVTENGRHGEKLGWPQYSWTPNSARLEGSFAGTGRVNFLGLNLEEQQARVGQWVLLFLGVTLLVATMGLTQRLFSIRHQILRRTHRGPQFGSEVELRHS
Procedure: as §1

Carboxypeptidase A1 = molecular target: T2, Carboxypeptidase A1 (Bos taurus, UniProt P00730); assay: CPA Inhibition Assay; conditions: pH 7.5; 22 °C
T2 sequence (P00730 whole entry): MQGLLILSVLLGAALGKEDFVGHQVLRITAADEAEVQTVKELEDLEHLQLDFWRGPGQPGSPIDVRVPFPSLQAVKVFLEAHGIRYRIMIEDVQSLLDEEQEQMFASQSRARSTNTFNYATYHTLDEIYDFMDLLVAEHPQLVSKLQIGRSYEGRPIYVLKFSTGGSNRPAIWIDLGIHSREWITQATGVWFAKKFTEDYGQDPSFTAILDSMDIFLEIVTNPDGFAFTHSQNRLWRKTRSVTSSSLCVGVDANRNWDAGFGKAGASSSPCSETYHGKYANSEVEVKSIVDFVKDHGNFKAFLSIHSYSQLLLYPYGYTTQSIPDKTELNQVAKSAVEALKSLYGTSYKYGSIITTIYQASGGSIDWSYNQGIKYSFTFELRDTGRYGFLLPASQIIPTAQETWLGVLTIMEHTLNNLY
Procedure: as §1, with “Assay for the inhibition of carboxypeptidase A (CPDA)” for “Enzyme assay”, “96-well” for “384-well”, “decrease” for “increase”, “absorbance (328” for “fluorescence (excitation @320 nm, emission @405”, “15” for “60”, “Spectromax 250 absorbance” for “BMG Polarstar Galaxy fluorescent”

Angiotensin-converting enzyme 2, sequence (Q9BYF1 whole entry): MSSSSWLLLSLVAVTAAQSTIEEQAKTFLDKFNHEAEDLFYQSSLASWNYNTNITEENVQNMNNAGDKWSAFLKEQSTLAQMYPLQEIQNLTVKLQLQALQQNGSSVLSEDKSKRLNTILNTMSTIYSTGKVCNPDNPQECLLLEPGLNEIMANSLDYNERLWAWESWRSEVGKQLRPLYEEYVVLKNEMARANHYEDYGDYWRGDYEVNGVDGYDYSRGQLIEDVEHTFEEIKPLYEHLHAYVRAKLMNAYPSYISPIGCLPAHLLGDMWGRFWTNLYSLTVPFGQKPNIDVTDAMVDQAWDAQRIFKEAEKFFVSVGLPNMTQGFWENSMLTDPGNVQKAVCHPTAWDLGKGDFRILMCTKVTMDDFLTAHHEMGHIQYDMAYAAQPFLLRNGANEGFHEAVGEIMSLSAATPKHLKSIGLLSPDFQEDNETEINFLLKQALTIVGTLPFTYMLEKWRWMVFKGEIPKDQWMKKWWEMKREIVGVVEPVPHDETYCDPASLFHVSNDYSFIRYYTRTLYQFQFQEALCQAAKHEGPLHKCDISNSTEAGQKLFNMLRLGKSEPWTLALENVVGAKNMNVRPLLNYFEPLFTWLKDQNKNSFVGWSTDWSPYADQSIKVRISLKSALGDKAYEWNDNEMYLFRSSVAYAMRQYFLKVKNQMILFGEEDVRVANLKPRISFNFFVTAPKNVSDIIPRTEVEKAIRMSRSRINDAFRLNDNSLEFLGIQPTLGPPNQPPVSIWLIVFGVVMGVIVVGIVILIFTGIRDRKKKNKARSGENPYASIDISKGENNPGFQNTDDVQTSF

Structure (SMILES) | IC50 [1] [nM] | IC50 [2] [nM] | IC50 (Carboxypeptidase A1) [nM]
CC(C)C[C@H](N[C@@H](Cc1cncn1Cc1ccc(OC(F)(F)F)cc1)C(=O)O)C(=O)O [(2S)-2-{[(1S)-1-carboxy-2-(1-{[4-(trifluoromethoxy)phenyl]methyl}-1H-imidazol-5-yl)ethyl]amino}-4-methylpentanoic acid] | 52 | – | –
CC(C)C[C@H](N[C@@H](Cc1cncn1CC1CCCCC1)C(=O)O)C(=O)O [(2S)-2-{[(1S)-1-carboxy-2-[1-(cyclohexylmethyl)-1H-imidazol-5-yl]ethyl]amino}-4-methylpentanoic acid] | 270 | – | –
Cc1ccccc1Cn1cncc1C[C@H](N[C@@H](CC(C)C)C(=O)O)C(=O)O [(2S)-2-{[(1S)-1-carboxy-2-{1-[(2-methylphenyl)methyl]-1H-imidazol-5-yl}ethyl]amino}-4-methylpentanoic acid] | 290 | – | –
CC(C)C[C@H](N[C@@H](Cc1cncn1Cc1ccc([N+](=O)[O-])cc1)C(=O)O)C(=O)O [(2S)-2-{[(1S)-1-carboxy-2-{1-[(4-nitrophenyl)methyl]-1H-imidazol-5-yl}ethyl]amino}-4-methylpentanoic acid] | 76 | – | –
O=C(O)[C@H](Cc1ccccc1)N[C@@H](Cc1cncn1Cc1ccccc1)C(=O)O [(2S)-2-{[(1S)-2-(1-benzyl-1H-imidazol-5-yl)-1-carboxyethyl]amino}-3-phenylpropanoic acid] | 340 | – | –
CC[C@H](N[C@@H](Cc1cncn1Cc1ccccc1)C(=O)O)C(=O)O [(2S)-2-{[(1S)-2-(1-benzyl-1H-imidazol-5-yl)-1-carboxyethyl]amino}butanoic acid] | 300 | – | 2800
CC(C)C[C@H](N[C@@H](Cc1cncn1Cc1cc(Cl)cc(Cl)c1)C(=O)O)C(=O)O [MLN4760] | 0.44 | > 100000 | 27000

Now from value to compound:

IC50 [1] [nM] | IC50 [2] [nM] | IC50 (Carboxypeptidase A1) [nM] | Structure (SMILES)
10 | > 10000 | 12000 | CC(C)C[C@H](N[C@@H](Cc1cncn1C(C)(C)C1CCCCC1)C(=O)O)C(=O)O [(2S)-2-{[(1S)-1-carboxy-2-[1-(2-cyclohexylpropan-2-yl)-1H-imidazol-5-yl]ethyl]amino}-4-methylpentanoic acid]
10 | > 10000 | > 10000 | Cc1ccc(Cn2cncc2C[C@H](N[C@@H](CC(C)C)C(=O)O)C(=O)O)cc1C [(2S)-2-{[(1S)-1-carboxy-2-{1-[(3,4-dimethylphenyl)methyl]-1H-imidazol-5-yl}ethyl]amino}-4-methylpentanoic acid]
1.4 | > 10000 | > 10000 | Cc1cc(C)cc(Cn2cncc2C[C@H](N[C@@H](CC(C)C)C(=O)O)C(=O)O)c1 [(2S)-2-{[(1S)-1-carboxy-2-{1-[(3,5-dimethylphenyl)methyl]-1H-imidazol-5-yl}ethyl]amino}-4-methylpentanoic acid]
4.2 | > 10000 | > 10000 | Cc1cccc(Cn2cncc2C[C@H](N[C@@H](CC(C)C)C(=O)O)C(=O)O)c1 [(2S)-2-{[(1S)-1-carboxy-2-{1-[(3-methylphenyl)methyl]-1H-imidazol-5-yl}ethyl]amino}-4-methylpentanoic acid]
21 | – | > 10000 | CC(C)C[C@H](N[C@@H](Cc1cncn1Cc1ccc(Cl)cc1)C(=O)O)C(=O)O [(2S)-2-{[(1S)-1-carboxy-2-{1-[(4-chlorophenyl)methyl]-1H-imidazol-5-yl}ethyl]amino}-4-methylpentanoic acid]
32 | > 10000 | > 10000 | Cc1ccc(Cn2cncc2C[C@H](N[C@@H](CC(C)C)C(=O)O)C(=O)O)cc1 [(2S)-2-{[(1S)-1-carboxy-2-{1-[(4-methylphenyl)methyl]-1H-imidazol-5-yl}ethyl]amino}-4-methylpentanoic acid]

Reference: BindingDB's records for doi:10.1021/ja0277226 (Millennium Pharmaceuticals, 2002)
